Laboratory results: patent US20240025906A1 (NEURON23, INC., priority 2022, published 2024)

Assays:
TYK2 JH2 = biological target: T1, TYK2 JH2 (Homo sapiens, UniProt P29597); assay: TYK2 JH2 binding assay (KINOMEscan KdELECT competitive binding); conditions: TYK2 JH2 domain, KINOMEscan KdELECT (Assay A); read-out: Biochemical TYK2_DiscoverX_JH2_BND_Kd
T1 construct: purchased DiscoverX (KINOMEscan KdELECT service); host or cells: E. coli BL21-derived (T7 phage display) or HEK-293
Method in brief: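 Kd values come from qPCR measurement of kinase retained on an immobilized-ligand resin after 1 h room-temperature competition with compound in an 11-point, 3-fold series.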

[1] = tested on: JAK1/TYK2 pSTAT5 (Tyr694/699) in THP-1 cell line; assay: IFNa-stimulated JAK1/TYK2 pSTAT5 (Tyr694/699) inhibition cellular assay, AlphaLISA; format: cell-based; conditions: Homo sapiens; THP-1 cells, IFNa-stimulated, AlphaLISA (Assay B); read-out: Cellular_THP1_IFNa-pSTATS_TYK2
Method in brief: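 THP-1 cells (2e4/well) in HBSS preincubated 1 h at 37° C. with compound (final 10000–0.04 nM, 8 points, 6-fold), then stimulated with IFNa (100 ng/mL stock) for 30 min before lysis. pSTAT5 (Tyr694/699) read by AlphaLISA at 615 nm; IC50 from four-parameter logistic fit with bottom fixed at 0 and Hill slope at −1.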

T1 sequence (P29597 589-875 limits assumed): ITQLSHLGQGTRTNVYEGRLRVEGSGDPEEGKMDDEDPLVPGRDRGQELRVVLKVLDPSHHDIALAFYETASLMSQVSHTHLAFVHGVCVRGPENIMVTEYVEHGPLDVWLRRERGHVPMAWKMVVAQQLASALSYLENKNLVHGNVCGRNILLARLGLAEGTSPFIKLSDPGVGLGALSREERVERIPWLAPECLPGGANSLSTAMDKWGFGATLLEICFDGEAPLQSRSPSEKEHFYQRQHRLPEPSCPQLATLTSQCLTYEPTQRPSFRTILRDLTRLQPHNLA

SMILES | Kd (TYK2 JH2) | IC50 [1]
CCc1nc2ccc(C#Cc3cnc(NC)c4cnc(NC(=O)C5CC5)cc34)cc2n1C [Example 811, N-(5-((2-ethyl-1-methyl-1H-benzo[d]imidazol-6-yl)ethynyl)-8-(methylamino)-2,7-naphthyridin-3-yl)cyclopropanecarboxamide] | ≤ 100 nM | ≤ 500 nM
[2H]C1([2H])Oc2ccc(C#Cc3cnc(NC)c4cnc(NC(=O)C5CC5)cc34)cc2O1 [Example 812, N-(5-((benzo[d][1,3]dioxol-5-yl-2,2-d2)ethynyl)-8-(methylamino)-2,7-naphthyridin-3-yl)cyclopropanecarboxamide] | ≤ 100 nM | ≤ 500 nM
CNc1ncc(C#Cc2ccc3oc(C)cc3c2)c2cc(NC(=O)C3CC3)ncc12 [Example 813, N-(8-(methylamino)-5-((2-methylbenzofuran-5-yl)ethynyl)-2,7-naphthyridin-3-yl)cyclopropanecarboxamide] | ≤ 100 nM | ≤ 500 nM
CNc1ncc(C#Cc2ccc(CN3C4CCC3COC4)cc2)c2cc(NC(=O)C3CC3)ncc12 [Example 815, N-(5-((4-(3-oxa-8-aza-bicyclo[3.2.1]octan-8-ylmethyl)phenyl)ethynyl)-8-(methylamino)-2,7-naphthyridin-3-yl)cyclopropanecarboxamide] | ≤ 100 nM | ≤ 500 nM
CNc1ncc(C#Cc2ccc(CN3CC(OC)C3)cc2)c2cc(NC(=O)C3CC3)ncc12 [Example 816, N-(5-((4-((3-methoxyazetidin-1-yl)methyl)phenyl)ethynyl)-8-(methylamino)-2,7-naphthyridin-3-yl)cyclopropanecarboxamide] | ≤ 100 nM | ≤ 500 nM
[2H]C([2H])([2H])n1nnc2ccc(C#Cc3cnc(NC)c4cnc(NC(=O)C5CC5)cc34)cc21 [Example 817, N-(5-((1-(methyl-d3)-1H-benzo[d][1,2,3]triazol-6-yl)ethynyl)-8-(methylamino)-2,7-naphthyridin-3-yl)cyclopropanecarboxamide] | ≤ 100 nM | ≤ 500 nM
[2H]C([2H])([2H])Nc1ncc(C#Cc2ccc3nc(C(F)F)n(C)c3c2)c2cc(NC(=O)C3CC3)ncc12 [Example 818, N-(5-((2-(difluoromethyl)-1-methyl-1H-benzo[d]imidazol-6-yl)ethynyl)-8-((methyl-d3)amino)-2,7-naphthyridin-3-yl)cyclopropanecarboxamide] | ≤ 100 nM | ≤ 500 nM
[2H]C([2H])([2H])Nc1ncc(C#Cc2ccc3nc(C(F)F)n(C)c3c2)c2cc(NC(=O)[C@H]3C[C@H]3C)ncc12 [Example 819, (1S,2R)—N-(5-((2-(difluoromethyl)-1-methyl-1H-benzo[d]imidazol-6-yl)ethynyl)-8-((methyl-d3)amino)-2,7-naphthyridin-3-yl)-2-methylcyclopropane-1-carboxamide] | ≤ 100 nM | ≤ 500 nM
CNc1ncc(C#Cc2ccc(CN3CCOCC3)cc2)c2cc(NC(=O)C3CC3)ncc12 [Example 820, N-(8-(methylamino)-5-((4-(morpholinomethyl)phenyl)ethynyl)-2,7-naphthyridin-3-yl)cyclopropanecarboxamide] | ≤ 100 nM | ≤ 500 nM
CNc1ncc(C#Cc2ccc(CN3CCOCC3)cc2)c2cc(NC(=O)[C@H]3C[C@H]3C)ncc12 [Example 821, (1S,2R)-2-methyl-N-(8-(methylamino)-5-((4-(morpholinomethyl)phenyl)ethynyl)-2,7-naphthyridin-3-yl)cyclopropane-1-carboxamide] | ≤ 100 nM | ≤ 500 nM
CNc1ncc(Br)c2c1cnc1[nH]ccc12 [Example 824, 9-bromo-N-methyl-3H-pyrrolo[2,3-c][2,7]naphthyridin-6-amine] | 100 to 1000 nM | > 500 nM
CNc1ncc(-c2nc3ccccc3o2)c2c1cnc1[nH]ccc12 [Example 825, 9-(benzo[d]oxazol-2-yl)-N-methyl-3H-pyrrolo[2,3-c][2,7]naphthyridin-6-amine] | ≤ 100 nM | > 500 nM
CNc1ncc(CCc2cc(OC)cc(-c3ncnn3C)c2)c2cc(NC(=O)C3CC3)ncc12 [Example 826, N-(5-(3-methoxy-5-(1-methyl-1H-1,2,4-triazol-5-yl)phenethyl)-8-(methylamino)-2,7-naphthyridin-3-yl)cyclopropanecarboxamide] | ≤ 100 nM | > 500 nM
CNc1ncc(-c2nc(Cc3ncn(C)n3)co2)c2cc(NC(=O)C3CC3)ncc12 [Example 827, N-(5-(4-((1-methyl-1H-1,2,4-triazol-3-yl)methyl)oxazol-2-yl)-8-(methylamino)-2,7-naphthyridin-3-yl)cyclopropanecarboxamide] | ≤ 100 nM | > 500 nM
CNc1ncc(-c2nc(Cc3ncnn3C)co2)c2cc(NC(=O)C3CC3)ncc12 [Example 828, N-(5-(4-((1-methyl-1H-1,2,4-triazol-5-yl)methyl)oxazol-2-yl)-8-(methylamino)-2,7-naphthyridin-3-yl)cyclopropanecarboxamide] | ≤ 100 nM | > 500 nM
CNc1ncc(-c2nc(-c3nc[nH]n3)co2)c2cc(NC(=O)C3CC3)ncc12 [Example 829, N-(5-(4-(1H-1,2,4-triazol-3-yl)oxazol-2-yl)-8-(methylamino)-2,7-naphthyridin-3-yl)cyclopropanecarboxamide] | ≤ 100 nM | ≤ 500 nM
CNc1ncc(-c2nc(-c3ncn(C)n3)co2)c2cc(NC(=O)C3CC3)ncc12 [Example 830, N-(5-(4-(1-methyl-1H-1,2,4-triazol-3-yl)oxazol-2-yl)-8-(methylamino)-2,7-naphthyridin-3-yl)cyclopropanecarboxamide] | ≤ 100 nM | ≤ 500 nM
CNc1ncc(-c2nc(-c3ncnn3C)co2)c2cc(NC(=O)C3CC3)ncc12 [Example 831, N-(5-(4-(1-methyl-1H-1,2,4-triazol-5-yl)oxazol-2-yl)-8-(methylamino)-2,7-naphthyridin-3-yl)cyclopropanecarboxamide] | ≤ 100 nM | > 500 nM
CNc1ncc(C2=CCCC(c3nc[nH]n3)C2)c2cc(NC(=O)C3CC3)ncc12 (stereo not shown) [Example 832, N-(5-(5-(1H-1,2,4-triazol-3-yl)cyclohex-1-en-1-yl)-8-(methylamino)-2,7-naphthyridin-3-yl)cyclopropanecarboxamide] | ≤ 100 nM | > 500 nM
CNc1ncc(C2=CCC(c3nc[nH]n3)C2)c2cc(NC(=O)C3CC3)ncc12 (stereo not shown) [Example 833, N-(5-(4-(1H-1,2,4-triazol-3-yl)cyclopent-1-en-1-yl)-8-(methylamino)-2,7-naphthyridin-3-yl)cyclopropanecarboxamide] | ≤ 100 nM | > 500 nM
CNc1ncc(C2=CCC(c3ncn(C)n3)C2)c2cc(NC(=O)C3CC3)ncc12 (stereo not shown) [Example 834, N-(5-(4-(1-methyl-1H-1,2,4-triazol-3-yl)cyclopent-1-en-1-yl)-8-(methylamino)-2,7-naphthyridin-3-yl)cyclopropanecarboxamide] | ≤ 100 nM | > 500 nM
CNc1ncc(C2=CCC(c3ncnn3C)C2)c2cc(NC(=O)C3CC3)ncc12 (stereo not shown) [Example 835, N-(5-(4-(1-methyl-1H-1,2,4-triazol-5-yl)cyclopent-1-en-1-yl)-8-(methylamino)-2,7-naphthyridin-3-yl)cyclopropanecarboxamide] | ≤ 100 nM | > 500 nM
CNc1ncc(-c2ccn(CCc3ncn(C)n3)n2)c2cc(NC(=O)C3CC3)ncc12 [Example 835A, N-(5-(1-(2-(1-methyl-1H-1,2,4-triazol-3-yl)ethyl)-1H-pyrazol-3-yl)-8-(methylamino)-2,7-naphthyridin-3-yl)cyclopropanecarboxamide] | ≤ 100 nM | > 500 nM
CNc1ncc(-c2ccn(CCc3ncnn3C)n2)c2cc(NC(=O)C3CC3)ncc12 [Example 836, N-(5-(1-(2-(1-methyl-1H-1,2,4-triazol-5-yl)ethyl)-1H-pyrazol-3-yl)-8-(methylamino)-2,7-naphthyridin-3-yl)cyclopropanecarboxamide] | ≤ 100 nM | > 500 nM
CNc1ncc(CCc2ccc(S(C)(=O)=O)cc2)c2cc(NC(=O)C3CC3)ncc12 [Example 839, N-(8-(methylamino)-5-(4-(methylsulfonyl)phenethyl)-2,7-naphthyridin-3-yl)cyclopropanecarboxamide] | ≤ 100 nM | ≤ 500 nM
CNc1ncc(-c2cn3cccnc3n2)c2cc(NC(=O)C3CC3)ncc12 [Example 841, N-(5-(imidazo[1,2-a]pyrimidin-2-yl)-8-(methylamino)-2,7-naphthyridin-3-yl)cyclopropanecarboxamide] | ≤ 100 nM | > 500 nM
CNc1ncc(-c2nc3n(n2)CCCC3)c2cc(NC(=O)C3CC3)ncc12 [Example 842, N-(8-(methylamino)-5-(5,6,7,8-tetrahydro-[1,2,4]triazolo[1,5-a]pyridin-2-yl)-2,7-naphthyridin-3-yl)cyclopropanecarboxamide] | ≤ 100 nM | > 500 nM
CNc1ncc(-c2nc3c(o2)CCCC3)c2cc(NC(=O)C3CC3)ncc12 [Example 843, N-(8-(methylamino)-5-(4,5,6,7-tetrahydrobenzo[d]oxazol-2-yl)-2,7-naphthyridin-3-yl)cyclopropanecarboxamide] | ≤ 100 nM | ≤ 500 nM
CNc1ncc(C23CC(C2)C3)c2cc(NC(=O)C3CC3)ncc12 [Example 844, N-(5-(bicyclo[1.1.1]pentan-1-yl)-8-(methylamino)-2,7-naphthyridin-3-yl)cyclopropanecarboxamide] | ≤ 100 nM | > 500 nM
